Test results reported in ChEMBL document CHEMBL1201862, “PubChem BioAssay data set” (2004).
The source made the active and inactive calls.

Assays:
[1] = target: Cytochrome P450 2C9 (Homo sapiens, UniProt P11712)
[2] = fluconazole-exposed Candida albicans growth modulators – fluorescence, retest, confirmation (AID 2467); format: functional, cell-based
[3] = system: BJ; experiment: cells; format: functional, cell-based; details: Homo sapiens
[4] = DRD fibroblast viability loss – cell-based, non-viral oncogenic, luminescence, dose response (AID 1934); format: functional; details: Homo sapiens
[5] = system: BJ; experiment: BJ-TERT fibroblast viability loss – cell-based, RAS-independent, luminescence, dose response (AID 1933); format: functional; details: Homo sapiens
[6] = NIH-3T3 fibroblast cytotoxicity, dose response, cytotoxicity control, cell-based, fluorescence, Alamar Blue, secondary assay (AID 2327); format: functional;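 further: NIH-3T3 mouse fibroblasts cultured with fluconazole at 8 µg/mL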
[7] = system: BJ; experiment: BJ-TERT-LT-ST fibroblast viability loss – cell-based, RAS-independent, luminescence, dose response (AID 1935); format: functional; details: Homo sapiens;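 further: BJ fibroblasts immortalized with TERT plus LT and ST oncogenes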
[8] = system: BJ; experiment: growth inhibition of engineered Ras-driven BJ cells – cell-based, alamar blue fluorescence, cherrypicked samples, dose response (AID 2631); format: functional; details: Homo sapiens;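 further: confirmatory dose-response assay in RAS-dependent BJ fibroblasts engineered with TERT, LT and ST, with cytotoxicity read by fluorescence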
[9] = target: T1, Aminopeptidase N (Plasmodium falciparum FcB1/Columbia, UniProt O96935); experiment: malaria alanyl aminopeptidase activity blockers – biochemical, fluorogenic H-Leu-NHMec substrate, 1536-well (AID 1445); parameters: species or system Plasmodium falciparum 3D7, 3D7
T1 sequence (O96935 whole entry): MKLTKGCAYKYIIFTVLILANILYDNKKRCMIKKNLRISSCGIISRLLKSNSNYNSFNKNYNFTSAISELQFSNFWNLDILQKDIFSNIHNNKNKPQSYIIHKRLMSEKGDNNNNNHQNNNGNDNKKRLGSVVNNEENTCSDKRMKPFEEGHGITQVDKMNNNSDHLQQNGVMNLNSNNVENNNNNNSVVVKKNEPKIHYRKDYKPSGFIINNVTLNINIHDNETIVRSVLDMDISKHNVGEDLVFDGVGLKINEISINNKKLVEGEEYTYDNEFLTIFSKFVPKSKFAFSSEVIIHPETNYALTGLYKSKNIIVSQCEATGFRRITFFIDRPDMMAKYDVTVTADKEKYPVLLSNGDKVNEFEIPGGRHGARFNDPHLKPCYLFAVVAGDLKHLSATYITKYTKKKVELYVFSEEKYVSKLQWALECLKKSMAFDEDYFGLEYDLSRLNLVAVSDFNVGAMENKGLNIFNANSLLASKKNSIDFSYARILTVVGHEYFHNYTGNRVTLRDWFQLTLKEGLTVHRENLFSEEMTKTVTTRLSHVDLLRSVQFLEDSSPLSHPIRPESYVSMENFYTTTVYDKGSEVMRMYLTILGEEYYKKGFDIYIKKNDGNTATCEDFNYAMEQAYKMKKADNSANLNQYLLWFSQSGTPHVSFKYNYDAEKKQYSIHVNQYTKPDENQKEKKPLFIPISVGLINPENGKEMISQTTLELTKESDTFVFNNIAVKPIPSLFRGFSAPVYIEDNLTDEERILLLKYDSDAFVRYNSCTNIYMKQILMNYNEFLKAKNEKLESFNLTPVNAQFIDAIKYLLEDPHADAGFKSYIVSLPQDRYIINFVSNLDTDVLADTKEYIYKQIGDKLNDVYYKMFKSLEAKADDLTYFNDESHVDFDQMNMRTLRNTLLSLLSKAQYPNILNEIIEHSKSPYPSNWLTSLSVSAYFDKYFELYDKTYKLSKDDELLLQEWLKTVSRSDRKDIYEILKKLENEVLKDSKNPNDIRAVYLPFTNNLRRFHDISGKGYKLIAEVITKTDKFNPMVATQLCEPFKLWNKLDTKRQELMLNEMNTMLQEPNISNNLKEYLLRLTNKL

[10] = target: T2, DNA repair protein RAD52 homolog (Homo sapiens, UniProt P43351); format: functional, biochemical
T2 sequence (P43351 whole entry): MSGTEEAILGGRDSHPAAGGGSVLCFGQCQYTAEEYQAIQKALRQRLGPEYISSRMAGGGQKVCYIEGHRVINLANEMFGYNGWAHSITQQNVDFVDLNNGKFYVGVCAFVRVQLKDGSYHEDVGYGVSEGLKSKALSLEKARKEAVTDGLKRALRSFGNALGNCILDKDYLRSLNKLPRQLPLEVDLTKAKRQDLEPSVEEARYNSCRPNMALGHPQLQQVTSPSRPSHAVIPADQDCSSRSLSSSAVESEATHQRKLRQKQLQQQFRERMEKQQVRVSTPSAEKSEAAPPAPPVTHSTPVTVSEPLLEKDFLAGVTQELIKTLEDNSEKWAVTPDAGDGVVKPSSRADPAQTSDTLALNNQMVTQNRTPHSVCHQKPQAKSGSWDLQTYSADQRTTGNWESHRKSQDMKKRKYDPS

[11] = viability of PTEN-deleted HCT116 cells – cell-based, HCT116 PTEN knockout, dose response (AID 1047); format: functional;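 further: HCT116 colon tumor cells with PTEN knocked out; cells exposed to compound for 60 hours before readout; potency for loss of cell viability measured by luminescence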
[12] = viability of HCT116 lacking mutant beta-catenin – cell-based, human colon tumor, dose response (AID 1045); format: functional;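 further: HCT116 colon tumor cells with beta catenin knocked out; cells exposed to compound for 60 hours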
[13] = system: Vero; experiment: cells; format: functional; details: Chlorocebus sabaeus
[14] = system: Vero; experiment: cells; format: functional, cell-based; details: Chlorocebus sabaeus
[15] = target: Ras and Rab interactor 1/Tyrosine-protein kinase ABL1 (Homo sapiens, UniProt P00519+Q13671); format: functional;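 further: biochemical TR-FRET dose-response test measuring inhibition of binding between Rin1 and Abl proteins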
Ras and Rab interactor 1/Tyrosine-protein kinase ABL1, sequence (P00519 whole entry): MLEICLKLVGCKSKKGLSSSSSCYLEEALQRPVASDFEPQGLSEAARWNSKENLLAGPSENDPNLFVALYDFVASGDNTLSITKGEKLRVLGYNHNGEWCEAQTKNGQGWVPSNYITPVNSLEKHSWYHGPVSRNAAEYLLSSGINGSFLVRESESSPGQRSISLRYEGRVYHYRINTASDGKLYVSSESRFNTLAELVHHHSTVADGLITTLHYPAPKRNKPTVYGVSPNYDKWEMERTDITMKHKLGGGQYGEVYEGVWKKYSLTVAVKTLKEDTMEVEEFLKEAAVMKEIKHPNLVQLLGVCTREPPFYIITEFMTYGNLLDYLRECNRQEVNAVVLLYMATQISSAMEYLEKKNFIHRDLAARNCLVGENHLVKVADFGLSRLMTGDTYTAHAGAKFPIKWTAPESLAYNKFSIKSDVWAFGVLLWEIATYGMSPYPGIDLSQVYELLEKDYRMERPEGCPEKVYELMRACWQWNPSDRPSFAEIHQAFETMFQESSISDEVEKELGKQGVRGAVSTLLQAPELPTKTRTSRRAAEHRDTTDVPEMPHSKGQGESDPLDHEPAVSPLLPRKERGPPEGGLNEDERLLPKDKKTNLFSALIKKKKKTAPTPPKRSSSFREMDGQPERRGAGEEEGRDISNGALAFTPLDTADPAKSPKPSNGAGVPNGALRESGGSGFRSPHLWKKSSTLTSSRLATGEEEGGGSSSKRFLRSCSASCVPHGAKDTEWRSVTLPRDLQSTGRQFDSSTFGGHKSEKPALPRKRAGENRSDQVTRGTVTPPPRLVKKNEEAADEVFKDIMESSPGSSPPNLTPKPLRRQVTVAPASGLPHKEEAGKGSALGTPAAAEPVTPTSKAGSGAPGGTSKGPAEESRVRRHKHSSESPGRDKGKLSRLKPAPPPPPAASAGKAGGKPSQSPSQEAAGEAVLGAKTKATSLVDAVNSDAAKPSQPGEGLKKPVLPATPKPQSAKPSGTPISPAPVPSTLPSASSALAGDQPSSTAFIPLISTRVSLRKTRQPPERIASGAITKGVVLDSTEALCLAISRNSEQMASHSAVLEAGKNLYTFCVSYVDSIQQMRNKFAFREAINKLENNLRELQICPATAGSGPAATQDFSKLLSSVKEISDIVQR
Ras and Rab interactor 1/Tyrosine-protein kinase ABL1, sequence (Q13671 whole entry): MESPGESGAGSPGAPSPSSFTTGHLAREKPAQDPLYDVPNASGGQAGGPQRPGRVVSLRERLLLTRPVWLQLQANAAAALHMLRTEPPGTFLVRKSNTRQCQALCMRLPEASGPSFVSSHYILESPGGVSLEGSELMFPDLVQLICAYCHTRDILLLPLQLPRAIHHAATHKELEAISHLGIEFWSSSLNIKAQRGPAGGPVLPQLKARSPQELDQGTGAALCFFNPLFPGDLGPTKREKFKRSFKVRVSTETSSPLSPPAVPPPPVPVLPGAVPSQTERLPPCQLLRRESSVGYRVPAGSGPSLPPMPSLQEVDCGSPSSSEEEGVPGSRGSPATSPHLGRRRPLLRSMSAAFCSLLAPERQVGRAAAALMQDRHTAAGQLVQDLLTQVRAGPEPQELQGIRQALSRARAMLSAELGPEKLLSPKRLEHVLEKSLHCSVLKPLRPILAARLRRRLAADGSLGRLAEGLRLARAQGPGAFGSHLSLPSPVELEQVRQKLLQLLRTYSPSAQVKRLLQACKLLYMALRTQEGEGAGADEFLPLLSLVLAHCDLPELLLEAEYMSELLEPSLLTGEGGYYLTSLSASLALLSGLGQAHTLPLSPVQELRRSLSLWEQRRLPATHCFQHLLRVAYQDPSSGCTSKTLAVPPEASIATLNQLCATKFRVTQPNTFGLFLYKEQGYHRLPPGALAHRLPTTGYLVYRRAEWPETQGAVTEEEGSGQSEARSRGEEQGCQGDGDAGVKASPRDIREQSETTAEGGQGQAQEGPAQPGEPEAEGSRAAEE

[16] = Trypanosoma cruzi growth suppression in host cells – NIH3T3 host cells, beta-gal luminescence, confirmation (AID 2044); format: functional, cell-based;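 further: intracellular parasites grown in NIH/3T3 mouse fibroblasts as host cells; luminescent beta-galactosidase reporter signal from transgenic T. cruzi replicating inside host cells; inhibitors lower the luminescence signal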
[17] = decrease of insulin promoter-GFP reporter – imaging, high-content screening, mouse beta cells (AID 1628); format: functional; details: MIN6
[18] = NIH3T3 cell viability loss – ATP luminescence, mouse fibroblasts, counter-screen, dose response (AID 2010); format: functional, cell-based;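 further: cells exposed to compound for about 90 hours before reading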
[19] = MIN6 cell viability loss – mouse insulinoma, cytotoxicity control, dose response (AID 2122); format: functional;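 further: confirmatory high-throughput counterscreen run to flag cytotoxic compounds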
[20] = target: Cytochrome P450 3A4 (Homo sapiens, UniProt P08684);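 further: CYP3A4 tested as one member of a cytochrome P450 panel screen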
Cytochrome P450 3A4, sequence (P08684 whole entry): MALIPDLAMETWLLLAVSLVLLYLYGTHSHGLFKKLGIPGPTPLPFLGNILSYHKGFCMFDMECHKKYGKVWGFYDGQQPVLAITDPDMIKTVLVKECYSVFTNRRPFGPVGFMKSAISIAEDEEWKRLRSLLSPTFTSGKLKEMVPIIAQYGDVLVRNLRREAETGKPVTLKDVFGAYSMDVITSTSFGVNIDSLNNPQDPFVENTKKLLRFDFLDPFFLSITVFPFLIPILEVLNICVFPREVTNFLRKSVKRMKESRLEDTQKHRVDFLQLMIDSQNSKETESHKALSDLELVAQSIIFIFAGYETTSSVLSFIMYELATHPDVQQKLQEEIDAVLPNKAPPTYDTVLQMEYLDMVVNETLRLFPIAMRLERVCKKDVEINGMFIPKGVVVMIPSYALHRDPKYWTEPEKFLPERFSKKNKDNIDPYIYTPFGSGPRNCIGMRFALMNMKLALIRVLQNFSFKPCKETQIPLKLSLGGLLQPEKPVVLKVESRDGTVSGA

[21] = target: T3, Cytochrome P450 1A2 (Homo sapiens, UniProt P05177);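 further: PubChem cytochrome P450 panel assay, CYP1A2 panel member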
T3 sequence (P05177 whole entry): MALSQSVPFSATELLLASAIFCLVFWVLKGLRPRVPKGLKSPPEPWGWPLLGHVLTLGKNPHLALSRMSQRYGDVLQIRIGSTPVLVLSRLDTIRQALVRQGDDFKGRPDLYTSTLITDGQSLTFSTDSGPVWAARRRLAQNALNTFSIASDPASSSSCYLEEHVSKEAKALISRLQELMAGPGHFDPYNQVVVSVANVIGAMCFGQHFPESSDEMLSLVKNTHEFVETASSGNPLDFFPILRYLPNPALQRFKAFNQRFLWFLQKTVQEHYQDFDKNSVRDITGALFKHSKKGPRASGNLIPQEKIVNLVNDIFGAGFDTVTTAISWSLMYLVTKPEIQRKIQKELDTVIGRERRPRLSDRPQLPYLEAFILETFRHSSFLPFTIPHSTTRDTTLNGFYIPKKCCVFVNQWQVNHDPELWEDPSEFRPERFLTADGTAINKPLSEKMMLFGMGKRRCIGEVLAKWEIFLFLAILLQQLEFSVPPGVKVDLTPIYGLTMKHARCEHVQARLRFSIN

[22] = target: Cytochrome P450 2C19 (Homo sapiens, UniProt P33261); experiment: Cytochrome panel assay with activity outcomes. Panel member name: p450-cyp2c19 Compounds with AC50 equal or less than 10 uM are considered active; format: functional; details: read-out: AC50
Cytochrome P450 2C19, sequence (P33261 whole entry): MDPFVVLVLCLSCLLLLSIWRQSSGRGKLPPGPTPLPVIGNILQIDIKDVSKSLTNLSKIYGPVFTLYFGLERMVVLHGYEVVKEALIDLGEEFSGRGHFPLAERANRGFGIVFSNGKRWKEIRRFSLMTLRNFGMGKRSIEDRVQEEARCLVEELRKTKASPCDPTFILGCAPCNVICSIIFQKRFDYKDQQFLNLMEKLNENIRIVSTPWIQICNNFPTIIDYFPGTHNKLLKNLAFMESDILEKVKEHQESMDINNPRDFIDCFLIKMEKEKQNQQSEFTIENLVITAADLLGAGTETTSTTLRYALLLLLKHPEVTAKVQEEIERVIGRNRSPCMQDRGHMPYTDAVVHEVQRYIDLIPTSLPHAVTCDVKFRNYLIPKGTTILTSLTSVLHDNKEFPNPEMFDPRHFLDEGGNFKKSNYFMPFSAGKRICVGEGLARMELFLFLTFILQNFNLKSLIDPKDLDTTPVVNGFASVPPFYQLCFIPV

[23] = target: Protein Wnt-3a (Mus musculus, UniProt P27467); experiment: antagonism of Wnt3a pathway luciferase reporter – Wnt-LIGHT cells, luminescence, selectivity assay for Gli-SUFU antagonist project, dose response (AID 651570); format: functional; details: read-out: IC50_Mean;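 further: Wnt-LIGHT reporter cells stimulated with conditioned medium from Wnt3a-producing cells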
Protein Wnt-3a, sequence (P27467 whole entry): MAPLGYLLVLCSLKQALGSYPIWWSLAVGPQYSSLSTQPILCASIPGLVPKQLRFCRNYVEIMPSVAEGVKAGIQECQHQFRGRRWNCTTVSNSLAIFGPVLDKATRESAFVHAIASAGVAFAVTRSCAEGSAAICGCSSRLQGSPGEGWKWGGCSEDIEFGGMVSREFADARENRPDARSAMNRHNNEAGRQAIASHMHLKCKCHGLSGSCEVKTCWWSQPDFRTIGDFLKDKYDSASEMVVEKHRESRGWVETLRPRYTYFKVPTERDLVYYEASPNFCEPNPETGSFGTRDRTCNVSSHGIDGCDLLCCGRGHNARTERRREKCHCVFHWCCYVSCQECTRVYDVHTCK

[24] = Luminescence Cell-Based Dose Retest to Confirm Inhibitors of Cancer Stem Cells. [Related pubchem assays (depositor defined):AID2717, AID2721]; format: functional; details: Homo sapiens
[25] = reduction of Shn3 3'UTR-driven luciferase in osteoblasts – cell-based, Clone20 osteoblasts, firefly luciferase, cherry-picked, dose response (AID 624132); format: functional;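 further: firefly luciferase luminescence from reporter carrying the Shn3 3'UTR in osteoblasts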
[26] = system: INS1; experiment: INS-1E survival protection against cytokine death – cell-based, luminescence, retest, dose response (AID 449756); format: functional; details: Rattus norvegicus;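 further: cell death triggered by IL-1 beta plus TNF-alpha plus IFN-gamma mixture; protective hits raise ATP signal compared with cytokine alone wells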
[27] = non-specific 3'UTR reporter inhibition in Clone20-Shn3RL – cell-based, Renilla luciferase, cherry-picked, counter-screen for Shn3 inhibitor project, dose response (AID 624133); format: functional
[28] = loss of viability in HepG2 cells – cell-based, CellTiter-Glo, cherry-picked, cytotoxicity control for Shn3 inhibitor project, dose response (AID 624134); format: functional
[29] = THP-1 cell cytotoxicity, dose response, cytotoxicity control for non-replicating M. tuberculosis project (AID 489025); format: functional
[30] = HepG2 cell cytotoxicity, dose response, cytotoxicity control for non-replicating M. tuberculosis project (AID 489018); format: functional; details: Mycobacterium tuberculosis
[31] = alpha-synuclein stem-loop luciferase translation blockers – H4 neuroglioma cells, luminescence, confirmation (AID 1988); format: functional, cell-based
[32] = cells; format: functional
[33] = Luminescence Cell-Based Dose Response HTS to Identify Inhibitors of 5'UTR Stem-Loop Driven Prion Protein mRNA Translation in H4 Neuroglioblastoma Cells. [Related pubchem assays: 1827 (Project Summary), 1813 (Primary HTS)]; format: functional
[34] = system: HEK293; experiment: cells; format: functional, cell-based; details: Homo sapiens
[35] = Vero E6 cell cytotoxicity, dose response, cytotoxicity control for non-replicating M. tuberculosis project, secondary assay (AID 492998); format: functional, VeroE6; details: Vero C1008
[36] = system: HEK293; experiment: cells; format: functional, cell-based; details: Homo sapiens; remark: listed apart in the source
[37] = system: HEK293; experiment: inhibition of NOD1-driven NF-kB reporter – cell-based, luminescence, uHTS, primary screen (AID 1578); format: functional; details: Homo sapiens
[38] = system: HEK293; experiment: NOD2 signaling inhibitors in MDP-stimulated cells, cell-based, uHTS, luminescence (AID 2001); format: functional; details: Homo sapiens
[39] = luciferase reporter signal suppression in cells – H4 neuroglioma cells, luminescence, dose response (AID 1990); format: functional, cell-based

Cytochrome P450 2C9, sequence (P11712 whole entry): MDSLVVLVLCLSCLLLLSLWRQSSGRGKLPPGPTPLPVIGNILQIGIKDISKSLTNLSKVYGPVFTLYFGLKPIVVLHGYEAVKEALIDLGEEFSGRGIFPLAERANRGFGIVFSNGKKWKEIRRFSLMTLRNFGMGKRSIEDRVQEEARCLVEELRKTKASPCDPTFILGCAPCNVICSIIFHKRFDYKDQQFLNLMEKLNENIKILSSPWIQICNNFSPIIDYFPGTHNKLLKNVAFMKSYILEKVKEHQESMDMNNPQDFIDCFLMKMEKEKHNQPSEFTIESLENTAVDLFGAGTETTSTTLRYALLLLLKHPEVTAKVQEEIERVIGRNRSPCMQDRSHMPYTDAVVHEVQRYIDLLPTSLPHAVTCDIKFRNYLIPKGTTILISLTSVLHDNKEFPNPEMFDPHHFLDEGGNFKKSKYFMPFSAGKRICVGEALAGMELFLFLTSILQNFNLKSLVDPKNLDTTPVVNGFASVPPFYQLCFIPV

O=C(Nc1cccc2ccccc12)c1cn(-c2ccccc2)nc1-c1cccs1
AC50 [1]: inconclusive

CCCCCCCCCC[n+]1cccc2c3ccccc3ccc21
EC50 [2]: 0.723 µM (active) | EC50 [3]: 11.8 µM (active) | EC50 [4]: 8.72 µM (active) | EC50 [5]: 2.78 µM (active) | EC50 [6]: > 150 µM (inactive) | EC50 [7]: 10.2 µM (active) | EC50 [8]: 5.93 µM (active) | IC50 [9]: 89.6 µM (active) | AC50 [10]: 6.58 µM (active)

CCc1ccc(C(=O)/C=C/c2ccc([N+](=O)[O-])o2)cc1
EC50 [3]: > 150 µM (inconclusive) | EC50 [11]: 2.25 µM (active) | EC50 [4]: 5.5 µM (inconclusive) | EC50 [5]: 5.72 µM (inconclusive) | EC50 [7]: 4.02 µM (inconclusive) | EC50 [8]: 0.57 µM (active) | EC50 [12]: 1.69 µM (active) | CC50 [13]: 12.3 µM (active) | IC50 [14]: > 25 µM (active)

CC12CCC(=O)N1C(C(=O)Nc1nnc(SCc3ccccc3F)s1)CS2 (stereo not given)
IC50 [15]: 4.08 µM (active)

Cc1cc(C)n(-c2nc(NCCC(C)C)c3c4c(sc3n2)COC(C)(C)C4)n1
EC50 [16]: 1.64 µM (active) | IC50 [17]: 3.09 µM (active) | EC50 [18]: > 60 µM (not active) | IC50 [19]: 2.26 µM (active)

COc1ccc(NC(=O)CN(C)C(=O)Cc2ccc(S(=O)(=O)N3CCOCC3)s2)cc1
IC50 [15]: 2.03 µM (active)

Cc1cc(C)cc(-n2nnc(C(=O)NCc3ccccc3Cl)c2N)c1
AC50 [20]: 15.8 µM (inconclusive) | AC50 [21]: 1.58 µM (inconclusive) | AC50 [1]: inconclusive | AC50 [22]: 3.16 µM (inconclusive)

O=C(c1cc(-c2ccco2)on1)N1CCOCC1
AC50 [21]: 0.0251 µM (inconclusive) | AC50 [1]: inconclusive

Cc1ccccc1Cn1c(=N)n(CC(=O)c2ccco2)c2ccccc21
IC50 [17]: 3.99 µM (active) | IC50 [19]: 7.02 µM (active)

O=C(N[C@H]1C/C=C\C[C@@H](CC(=O)N(CCO)Cc2ccccc2)C(=O)NC[C@H](c2ccccc2)OC1=O)OCC1c2ccccc2-c2ccccc21
IC50 [23]: 7.16 µM (active) | AC50 [24]: 2.24 µM (active)

CCn1/c(=N\C(=O)CCS(=O)(=O)c2ccccc2)sc2cccc(OC)c21
IC50 [23]: 0.803 µM (active) | AC50 [25]: 1.28 µM (active) | AC50 [26]: 5.08 µM (active) | AC50 [27]: 3.05 µM (active) | AC50 [28]: > 70 µM (inactive)

O=C(N/N=C/c1cc(Br)c(Br)s1)c1ccncc1
CC50 [29]: 6.79 µM (active) | CC50 [30]: 16.7 µM (active) | EC50 [31]: 9.58 µM (active) | IC50 [32]: 2.64 µM (active) | EC50 [33]: 16.8 µM (active) | IC50 [34]: 2.13 µM (active) | AC50 [26]: 3.31 µM (active) | CC50 [35]: 7.99 µM (active) | IC50 [36]: > 20 µM (inactive) | EC50 [37]: > 20 µM (inactive) | IC50 [38]: 17.9 µM (inactive) | EC50 [39]: > 120 µM (not active)

CCn1c(C)nc2c1C(=O)c1ccccc1C2=O
AC50 [20]: 20 µM (inconclusive) | AC50 [1]: inconclusive | AC50 [22]: 20 µM (inconclusive)
